Our source for the Kd values is PubChem BioAssay AID1549 (Sanford-Burnham Center for Chemical Genomics, 2009).

The source made the active and inactive calls. How the calls were made is not given here.

The experiment addresses Influenza A virus M2 proton channel (A/TW/4845/1999 H1N1). Put plainly: NMR binding screen, influenza A virus M2 proton channel, Kd (AID 1549). The settings on record: M2 protein.
Turning to `Clc1ccc(-n2ccnc2)nn1`, the Kd is > 4 mM (inactive). As for `O=C(Nc1cnc2ccccn2c1=O)c1ccc(F)cc1`, the figure is > 4 mM (inactive); as for `CCn1c(C)c(C(C)=O)c(N2CCN(C)CC2)nc1=S`, > 4 mM (inactive); as for `CC(=O)Nc1ccc(-c2ccc3nncn3n2)cc1`, > 4 mM (inactive). In the case of `Nc1ncccc1OCc1ccccc1`, the Kd was > 4 mM (inactive). The figure for `COC(=O)c1sc(N)nc1C` is > 4 mM (inactive).

In the case of `CNC(=O)C1COc2ccccc2O1` (stereo not given), the Kd was > 4 mM (inactive).

In the case of `O=c1cnnc(SCCc2ccccc2)[nH]1`, the Kd was > 4 mM (inactive).

For `O=C1CC(NCc2ccco2)C(=O)NN1` (stereo not given), the Kd is > 4 mM (inactive). On to `O=C1CSC(=Nc2ccc(Cl)cc2)N1`, for which the Kd was > 4 mM (inactive).

Turning to `CC(=O)c1ccc(NS(=O)(=O)c2cccc(C)c2)cc1`, the Kd was > 4 mM (inactive). With `O=C(Nc1cccnc1)Nc1ccc2c(c1)OCO2`, the Kd is > 4 mM (inactive). With `COc1ccc2c(c1OC)OC[C@@H](c1ccc(OC)c(OC)c1OC)C2`, the Kd is > 4 mM (inactive). As for `O=C(CSc1cccc2cccnc12)N1CCCC1`, the figure is > 4 mM (inactive); as for `O=C(NCc1ccccn1)c1ccc(Br)s1`, > 4 mM (inactive). The figure for `O=S1(=O)CCC(NC(=S)Nc2ccccc2)C1` (stereo not given) is > 4 mM (inactive). For the compound `NC(C(=O)O)C(O)c1ccccc1` (stereo not given), the Kd was > 4 mM (inactive). As to `CCN(CC)C(=O)c1n[nH]c(=O)c2ccccc12`, the Kd is > 4 mM (inactive). For the compound `c1ccc(C[N+]23CCN(CC2)c2ccccc23)cc1`, the Kd was > 4 mM (inactive). `OC1CCN(c2nccc(C(F)(F)F)n2)CC1`: the Kd is > 4 mM (inactive). In the case of `O=C(O)CCC(=O)NCc1cccnc1`, the Kd was > 4 mM (inactive). On to `CC(=O)c1cccc(NC(=O)C=C(C)C)c1`, for which the Kd was > 4 mM (inactive).

Regarding `Cn1c(=O)[nH]c(=O)c2c1ncn2CCN1CCCCC1`, the Kd was > 4 mM (inactive). In the case of `Cn1ccc(C(=O)NC(=S)NN2CCOCC2)n1`, the Kd was > 4 mM (inactive). Regarding `Cn1nc(C(C)(C)C)cc1N`, the Kd is > 4 mM (inactive). The figure for `O=C(Nc1nc2c(s1)CCCC2)c1cccnc1` is > 4 mM (inactive). Turning to `COC(=O)Nc1ccc2ncn(C)c(=O)c2c1`, the Kd is > 4 mM (inactive).

Turning to `CCN1CCC(=NO)CC1`, the Kd was > 4 mM (inactive).

In the case of `CNC(=O)CC1Sc2ccccc2NC1=O` (stereo not given), the Kd is > 4 mM (inactive). Turning to `S=c1nc2c(n[nH]1)[nH]c1ccccc12`, the Kd was > 4 mM (inactive). Turning to `COC(=O)Cc1cccc(OC)c1`, the Kd was > 4 mM (inactive).

On to `S=c1[nH]cnc2sccc12`, for which the Kd was > 4 mM (inactive).

For `Nc1ncnc(NCCCO)c1[N+](=O)[O-]`, the Kd is > 4 mM (inactive). As for `O=C1C=CC(=O)N1c1ccccc1O`, the figure is > 4 mM (inactive); as for `Cc1c(C)c2c(c(C)c1O)CCC(C)(CCCC(C)CCCC(C)CCCC(C)C)O2` (stereo not given), > 4 mM (inactive); as for `S=C1NC(=S)NC(c2ccc3c(c2)OCO3)N1`, > 4 mM (inactive).

Consider `CC(=O)Nc1c(C#N)c(C(C)(C)C)cn1C`, for which the Kd is > 4 mM (inactive). The figure for `CC(=O)c1c(O)cc(C)n(Cc2ccccc2)c1=O` is > 4 mM (inactive); for `N#Cc1cnn2c(C(F)(F)F)cc(C(F)(F)F)nc12` it is > 4 mM (inactive); for `C(=N\c1nccs1)/c1cccnc1` it is > 4 mM (inactive). In the case of `COC(=O)c1cccc(N)c1`, the Kd is > 4 mM (inactive).

For `NC(=O)C1CCN(C(=O)c2ccco2)CC1`, the Kd was > 4 mM (inactive). Turning to `O=C(Nc1ccccc1C(F)(F)F)c1cnccn1`, the Kd was > 4 mM (inactive). `CC1CC2(NC(=O)NC2=O)C(C)CN1C` (stereo not given): the Kd is > 4 mM (inactive).

Take `CCOC(=O)c1c(C)nc2cc(C)ccn12`: the Kd is > 4 mM (inactive). As for `O=C1C[C@@H](c2ccccc2)Oc2cc(O)cc(O)c21`, the figure is > 4 mM (inactive); as for `c1ccc(Cc2nnc(-c3ccccc3)o2)cc1`, > 4 mM (inactive); as for `COc1c2ccoc2cc2oc(C)cc(=O)c12`, > 4 mM (inactive). For the compound `CN(C)C(=O)CSc1cccc2cccnc12`, the Kd was > 4 mM (inactive). Consider `Nc1cc(F)cc(F)c1`, for which the Kd is > 4 mM (inactive). Take `CC(C)(C)NC(=O)CN1C(=O)c2ccccc2S1(=O)=O`: the Kd is > 4 mM (inactive). Consider `Cc1ccc2c(c1)CCCN2C(=O)c1ccncc1`, for which the Kd was > 4 mM (inactive). For `CC(CCC(=O)O)[C@H]1CCC2C3CC[C@@H]4CCCC[C@]4(C)C3CC[C@@]21C` (stereo not given in full), the Kd is > 4 mM (inactive). Consider `c1ccc(-c2nnc3sc(-c4ccncc4)nn23)cc1`, for which the Kd is > 4 mM (inactive). Turning to `Oc1ccc2c(c1)OCC1(O)Cc3cc(O)c(O)cc3C21` (stereo not given), the Kd is > 4 mM (inactive).

With `COCc1cc(C)nc2sc(C(=O)OC)c(N)c12`, the Kd is > 4 mM (inactive). `NC(=O)c1ccc(NC(=O)c2ccco2)cc1`: the Kd was > 4 mM (inactive). As to `COC(=O)Nc1c(C)n(C)n(-c2ccccc2)c1=O`, the Kd is > 4 mM (inactive). As to `O=C(Nc1ccccc1)C(=O)NC1CC1`, the Kd was > 4 mM (inactive). For `CC(C)Oc1ccc(C2CC(=O)NNC2=O)cc1` (stereo not given), the Kd is > 4 mM (inactive).

As for `Cc1nc2nc(Cc3ccccc3)nn2c(C)c1Cl`, the Kd is > 4 mM (inactive). The figure for `Nc1cccc2nsnc12` is > 4 mM (inactive). In the case of `COc1ccc(/C=C2/C(=O)N=C(N)N2C)cc1OC`, the Kd was > 4 mM (inactive). `COc1cc2cc[n+]3cc4c(OC)c(OC)ccc4cc3c2cc1OC`: the Kd is > 4 mM (inactive). The figure for `N#Cc1cn(CC(=O)N2CCCC2)c2ccccc12` is > 4 mM (inactive). In the case of `CSc1ncc(C(=O)O)n1Cc1ccccc1`, the Kd was > 4 mM (inactive). For the compound `CC(=O)O[C@@H]1CC2C(C)(C)[C@@H](O)CC[C@]2(C)C2CC[C@@]3(C)[C@H](c4ccoc4)OC(=O)[C@H]4O[C@]43[C@@]21C` (stereo not given in full), the Kd was > 4 mM (inactive). The figure for `COC(=O)c1sccc1S(=O)(=O)N1CCCC1` is > 4 mM (inactive); for `COCCn1c(SC)nc2c1c(=O)[nH]c(=O)n2C` it is > 4 mM (inactive); for `O=C(NCO)c1ccc([N+](=O)[O-])cc1` it is > 4 mM (inactive). Take `Cc1cc(C)n2nc(NCc3ccccc3)nc2n1`: the Kd is > 4 mM (inactive). Turning to `Nc1nnc(SCc2ccc3c(c2)OCO3)s1`, the Kd was > 4 mM (inactive). For `O=C(CC1SC(=O)NC1=O)Nc1ccccc1` (stereo not given), the Kd is > 4 mM (inactive). On to `NCCN=C1NS(=O)(=O)c2ccccc21`, for which the Kd is > 4 mM (inactive).

`O=C1c2ccccc2C(=O)c2c(O)c(O)cc(O)c21`: the Kd was > 4 mM (inactive).

With `CN(C)C(=S)Nc1ccc([N+](=O)[O-])cc1`, the Kd was > 4 mM (inactive).

Regarding `COC1=C(OC)C(=O)C(C/C=C(\C)CC/C=C(\C)CC/C=C(\C)CC/C=C(/C)CC/C=C(\C)CC/C=C(\C)CC/C=C(\C)CC/C=C(\C)CC/C=C(\C)CCC=C(C)C)=C(C)C1=O`, the Kd was > 4 mM (inactive). Consider `COC(=O)N(c1ccccc1)P1(=S)OCCO1`, for which the Kd was > 4 mM (inactive). With `CC(=O)c1ccc(CC2SC(N)=NC2=O)cc1` (stereo not given), the Kd is > 4 mM (inactive). `CCSc1nc(C)c(CC)c(C)c1C(N)=O`: the Kd is > 4 mM (inactive). Turning to `CCC1C(=O)OCC1Cc1cncn1C` (stereo not given), the Kd is > 4 mM (inactive).

Take `OCc1ccc(N2CCOCC2)cc1`: the Kd is > 4 mM (inactive). For the compound `COc1ccc2c(c1)OCC(Cc1ccc(OC)c(OC(C)=O)c1)C2=O` (stereo not given), the Kd was > 4 mM (inactive). Regarding `Cc1nn2c(=O)/c(=C/c3cccc(F)c3)sc2nc1=O`, the Kd was > 4 mM (inactive). As for `Nc1ccc2c(C(F)(F)F)cc(=O)oc2c1`, the Kd was > 4 mM (inactive). As for `Cc1cc(O)cc(=O)n1CCCC(=O)O`, the Kd was > 4 mM (inactive). For `C=CCCCCCCCCCCCC(O)CC(O)CO` (stereo not given) (tested in a mixture with another compound), the Kd was > 4 mM (inactive). Turning to `Cc1sc(N)c(C(N)=O)c1C`, the Kd was > 4 mM (inactive). Take `O=C1CS/C(=N/N=C2CCCC2)N1`: the Kd is > 4 mM (inactive). `NCc1ccc2occc2c1`: the Kd was > 4 mM (inactive). For `O=C(O)c1ccccc1C(=O)Nc1ccccc1`, the Kd was > 4 mM (inactive). As for `O=C1NC(=O)C(C2SC(=O)NC2=O)S1` (stereo not given), the figure is > 4 mM (inactive); as for `Cc1nc(-c2ccc(C(=O)O)s2)cs1`, > 4 mM (inactive); as for `COC(=O)c1noc(C)c1C(C)=O`, > 4 mM (inactive).

For `CS(=O)(=O)NN=C1CCCCC1`, the Kd is > 4 mM (inactive).

As to `OCc1ccc(-n2cncn2)cc1`, the Kd is > 4 mM (inactive). As for `COc1ccc2c(c1O)-c1c(OC)c(OC)cc3c1[C@H](C2)N(C)CC3`, the figure is > 4 mM (inactive); as for `CCOC(=O)CN1C(=O)c2ccccc2C1=O`, > 4 mM (inactive); as for `c1ccc(Cc2nn3c(-c4ccncc4)nnc3s2)cc1`, > 4 mM (inactive). Consider `NC(=O)CSc1nc2ccccc2c(=O)[nH]1`, for which the Kd was > 4 mM (inactive). `S=c1[nH]c2cccnc2[nH]1`: the Kd was > 4 mM (inactive).

With `Oc1ccccc1-c1cc(C(F)(F)F)[nH]n1`, the Kd was > 4 mM (inactive). For `O=C1NC(=S)N/C1=C\c1cccnc1`, the Kd is > 4 mM (inactive). The figure for `CC(CC(=O)NN)C1(O)CCCCC1` (stereo not given) is > 4 mM (inactive); for `CC1(C)C(=O)C=C[C@@]2(C)C1C[C@@H](O)[C@]1(C)C2CC[C@@]2(C)[C@H](c3ccoc3)OC(=O)[C@H]3O[C@]321` (stereo not given in full) it is > 4 mM (inactive).

What is called Kd is the free concentration of one partner at which half of the binding sites on the other are occupied at equilibrium, for simple one-to-one binding.
